Data on one compound can be found in patent US7557111B2, “Substituted thieno[3,2-d]pyrimidines as CRF receptor antagonists” (Taisho Pharmaceutical Co., Ltd., priority 2004, dated 2009).

Counter-ions that a name gives are not always drawn.

What is called melting point is the temperature, or range, at which the solid turns liquid. Turning to `Cc1nc(N2CCC(CO)CC2)c2sc(C)c(-c3c(C)cc(Br)cc3C)c2n1` (as salt: HCl) [compound 1-004, {1-[7-(4-bromo-2,6-dimethyl-phenyl)-2,6-dimethyl-thieno[3,2-d]pyrimidin-4-yl]-piperidin-4-yl}-methanol hydrochloride], the melting point lay within 242 to 244 °C.
